This note sets out measurements from ChEMBL document CHEMBL5385918, “Aculeatiols A-G: Lovastatin Derivatives Extracted from Aspergillus aculeatus” (2024).

Structures are written as SMILES. Calls of active or inactive are those of the source. The rule behind the calls is not given here.

Assay [1] deals with HepG2. As to the kind of experiment: Anti-lipid accumulation activity in human HepG2 cells assessed as reduction in FFA-induced intracellular lipid level pretreated with compound for 48 hrs followed by FFA addition and measured after 48 hrs. The assay is classed as functional, cell-based. The conditions noted are these: time 96.0 hrs.
Assay [2] concerns HepG2. As to the kind of experiment: Upregulation of ACOX1 mRNA expression in FFA-induced human HepG2 cells at 5 to 10 uM pretreated with compound for 24 hrs followed by FFA-induction and measured after 24 hrs by qRT-PCR analysis. Conditions: dose 5-10 µM, time 48.0 hrs. The assay is classed as functional, cell-based.
In assay [3] the test system is HepG2. Description: Upregulation of PPARalpha mRNA expression in FFA-induced human HepG2 cells at 5 to 10 uM pretreated with compound for 24 hrs followed by FFA-induction and measured after 24 hrs by qRT-PCR analysis. The conditions noted are these: dose 5-10 µM, time 48.0 hrs. The assay is classed as functional, cell-based. In general terms: Quantitative PCR measures a nucleic acid by following its amplification.

Assay [4] has as its system HepG2. Description: Downregulation of SCD1 mRNA expression in FFA-induced human HepG2 cells at 5 to 10 uM pretreated with compound for 24 hrs followed by FFA-induction and measured after 24 hrs by qRT-PCR analysis. Format: functional, cell-based. The conditions noted are these: dose 5-10 µM, time 48.0 hrs.
For assay [5], the system named is HepG2. Description: Anti-lipid accumulation activity in human HepG2 cells assessed as reduction in FFA-induced intracellular lipid level at 10 uM pretreated with compound for 48 hrs followed by FFA addition and measured after 48 hrs. Format: functional. Also on record: scale not given: the % may be the effect or the level left. The conditions noted are these: time 96 hrs.

For assay [6], the system named is HepG2. Description: Downregulation of FATP2 mRNA expression in FFA-induced human HepG2 cells at 5 to 10 uM pretreated with compound for 24 hrs followed by FFA-induction and measured after 24 hrs by qRT-PCR analysis. Format: functional, cell-based. The conditions noted are these: dose 5-10 µM, time 48.0 hrs.
Assay [7] concerns HepG2. As to the kind of experiment: Downregulation of FATP5 mRNA expression in FFA-induced human HepG2 cells at 5 to 10 uM pretreated with compound for 24 hrs followed by FFA-induction and measured after 24 hrs by qRT-PCR analysis. The assay is classed as functional, cell-based. The conditions noted are these: dose 5-10 µM, time 48.0 hrs.
In assay [8] the test system is HepG2. Description: Anti-lipid accumulation activity in human HepG2 cells assessed as reduction in FFA-induced number of lipid droplets at 5 to 10 uM pretreated with compound for 24 hrs followed by FFA addition and measured after 48 hrs by oil red O staining based analysis. Format: functional, cell-based. Conditions: dose 5-10 µM, time 72.0 hrs.
The test system of assay [9] is HepG2. As to the kind of experiment: Anti-lipid accumulation activity in human HepG2 cells assessed as reduction in FFA-induced intracellular triglyceride content incubated for 24 hrs. The assay is classed as functional, cell-based. The conditions noted are these: dose 5-10 µM.
Assay [10] has as its system HepG2. As to the kind of experiment: Downregulation of FAS mRNA expression in FFA-induced human HepG2 cells at 5 to 10 uM pretreated with compound for 24 hrs followed by FFA-induction and measured after 24 hrs by qRT-PCR analysis. The assay is classed as functional, cell-based. Conditions: dose 5-10 µM, time 48.0 hrs.

With `C=C(C)CC(=O)O[C@@H]1C[C@H](C)C[C@@H]2CC(=O)[C@@H](C)[C@H]([C@@H]3O[C@H]3[C@@H](O)[C@H]3C=C(C)C(=O)O3)[C@H]21`, the outcome in the assay with HepG2 [1] was Active. As to `C[C@@H]1C=C2C=C[C@]3(CO)OCCC(=O)[C@]3(C)[C@H]2[C@@H](O)C1`, the outcome in the assay with HepG2 [1] was Active.

For `C\C(=C/C=C/C=C/[C@H]1[C@@H](C)[C@H](O)[C@@H](O)[C@H]2C[C@@H](C)C[C@@H](C)[C@H]12)C(=O)O`, the result with HepG2 [2], in the assay with HepG2 [3], in the assay on HepG2 [4], in the assay on HepG2 [6], in the assay on HepG2 [7] and in the assay on HepG2 [8] was Active. The outcome in the assay with HepG2 [1] and in the assay with HepG2 [10] was Active. Also, the results for the Activity with HepG2 [5] and in the assay with HepG2 [9] were 50% and “Dose-Dependent Effect”, respectively. In the case of `C=C(C)CC(=O)O[C@@H]1C[C@H](C)C[C@@H]2CC(=O)[C@@H](C)[C@H]([C@@H]3O[C@H]3[C@H](O)[C@@H]3C=C(C)C(=O)O3)[C@H]21`, in the assay on HepG2 [1], the result was Active. Turning to `C[C@@H]1C=C2C=CC3OCCC(=O)[C@]3(C)[C@H]2[C@@H](O)[C@H]1O` (some centres undefined), the outcome with HepG2 [1] was Active.

As for `Cc1ccc2c(c1)[C@H]1O[C@]3(O)CCO[C@](C)([C@H]1O)[C@]23C`, the result in the assay on HepG2 [1] was Active.

On to `C[C@@H]1C=C2C=C[C@]3(C)OCCC(=O)[C@]3(C)[C@H]2[C@@H](O)C1`, for which, in the assay with HepG2 [1], the outcome was Active. On to `C=C(C)CC(=O)O[C@@H]1C[C@H](C)C[C@@H]2CC(=O)[C@@H](C)[C@H]([C@@H]3O[C@H]3[C@H](O)[C@H]3C=C(C)C(=O)O3)[C@H]21`, for which, in the assay on HepG2 [1], the outcome was Active. For the molecule `C/C(=C\[C@H](O)[C@H](O)[C@H](O)[C@H](O)[C@@H]1[C@@H]2[C@@H](CC(=O)[C@@H]1C)C[C@@H](C)C[C@H]2O)C(=O)O`, in the assay with HepG2 [1], the outcome was Active.

For `C[C@H]1C[C@H](O)[C@H]2[C@@H](C=C[C@@](C)(O)[C@]2(C)C(=O)CCO)C1`, the result in the assay on HepG2 [1] was Active.
